Data as given in ChEMBL document CHEMBL3758105 (J Med Chem, 2016).

Legend:
CYP2C9 = CYP2C9 (Homo sapiens, UniProt P11712); assay: Inhibition of CYP2C9 in human liver microsomes assessed as reduction of diclofenac metabolism at 3 uM after 8 mins; format: ADME; settings: probe diclofenac
Collagenase 3 = Collagenase 3 (Homo sapiens, UniProt P45452); assay: Inhibition of full length human recombinant MMP13 using MCA-Arg-Pro-Leu-Gly-Leu-Dpa-Ala-Arg-Glu-Arg-NH2 as substrate preincubated for 60 mins followed by substrate addition by fluorescence assay
[1] = Intrinsic clearance in human liver microsomes measured over 40 mins by HPLC/MS analysis; format: ADME; settings: read-out: CLH
[2] = Oral bioavailability in Sprague-Dawley rat at 1 mg/kg; format: ADME, organism-based; settings: in vivo
[3] = Clearance in Sprague-Dawley rat at 1 mg/kg, iv administered as bolus dose by LC-MS/MS analysis; format: ADME, organism-based; settings: in vivo
Stromelysin-1 = Stromelysin-1 (Homo sapiens, UniProt P08254); assay: Inhibition of MMP3 (unknown origin) catalytic domain using MCA-Arg-Pro-Leu-Gly-Leu-Dpa-Ala-Arg-Glu-Arg-NH2 as substrate preincubated for 60 mins followed by substrate addition by fluorescence assay
[4] = Drug level in cynomolgus monkey hepatocytes treated with N-(4-Fluoro-3-methoxybenzyl)-6-(2-(((2S,5R)-5-(hydroxymethyl)-1,4-dioxan-2-yl)methyl)-2H-tetrazol-5-yl)-2-methylpyrimidine-4-carboxamide; format: ADME, cell-based, Macaca fascicularis, Hepatocyte
Cynomolgus monkey = assay: Drug level in cynomolgus monkey treated with N-(4-Fluoro-3-methoxybenzyl)-6-(2-(((2S,5R)-5-(hydroxymethyl)-1,4-dioxan-2-yl)methyl)-2H-tetrazol-5-yl)-2-methylpyrimidine-4-carboxamide at 1 mg/kg, po; format: ADME, organism-based, Macaca fascicularis; settings: in vivo
Hepatocyte = assay: Drug level in human hepatocytes treated with N-(4-Fluoro-3-methoxybenzyl)-6-(2-(((2S,5R)-5-(hydroxymethyl)-1,4-dioxan-2-yl)methyl)-2H-tetrazol-5-yl)-2-methylpyrimidine-4-carboxamide; format: ADME, cell-based
Rattus norvegicus = assay: Drug level in Sprague-Dawley rat treated with N-(4-Fluoro-3-methoxybenzyl)-6-(2-(((2S,5R)-5-(hydroxymethyl)-1,4-dioxan-2-yl)methyl)-2H-tetrazol-5-yl)-2-methylpyrimidine-4-carboxamide at 1 mg/kg, po; format: ADME, organism-based; settings: in vivo
[5] = Drug level in cynomolgus monkey urine treated with N-(4-Fluoro-3-methoxybenzyl)-6-(2-(((2S,5R)-5-(hydroxymethyl)-1,4-dioxan-2-yl)methyl)-2H-tetrazol-5-yl)-2-methylpyrimidine-4-carboxamide; format: ADME, tissue-based, Macaca fascicularis; settings: in vivo
[6] = molecular target: T1, Organic anion transporter 3 (Homo sapiens, UniProt Q8TCC7); assay: Inhibition of human OAT3 expressed in HEK cells assessed as reduction of [3H]-estrone sulfate uptake by radioactivity counting analysis; format: cell-based, HEK293
T1 sequence (Q8TCC7 whole entry): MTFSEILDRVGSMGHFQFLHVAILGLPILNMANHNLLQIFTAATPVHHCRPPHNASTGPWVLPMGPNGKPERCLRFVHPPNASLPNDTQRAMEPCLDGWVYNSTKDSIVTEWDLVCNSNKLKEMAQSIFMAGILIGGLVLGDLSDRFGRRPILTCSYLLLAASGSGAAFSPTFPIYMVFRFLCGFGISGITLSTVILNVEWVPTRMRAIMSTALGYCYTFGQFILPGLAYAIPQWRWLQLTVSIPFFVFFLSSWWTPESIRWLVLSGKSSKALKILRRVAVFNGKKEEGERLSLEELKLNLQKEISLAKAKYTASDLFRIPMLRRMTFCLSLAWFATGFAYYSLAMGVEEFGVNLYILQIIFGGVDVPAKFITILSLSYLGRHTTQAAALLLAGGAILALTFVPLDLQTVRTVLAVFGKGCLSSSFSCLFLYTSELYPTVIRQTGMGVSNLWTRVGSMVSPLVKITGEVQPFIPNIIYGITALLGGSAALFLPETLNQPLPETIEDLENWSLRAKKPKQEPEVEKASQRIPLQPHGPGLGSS

physchem = settings: buffer, pH 7.4
[7] = Intrinsic clearance in rat liver microsomes measured over 40 mins by HPLC/MS analysis; format: ADME; settings: read-out: CLH
[8] = Clearance in Sprague-Dawley rat at 0.2 mg/kg, iv administered as cassette bolus dose by LC-MS/MS analysis; format: ADME, organism-based; settings: in vivo

Sequence of CYP2C9 (P11712 whole entry): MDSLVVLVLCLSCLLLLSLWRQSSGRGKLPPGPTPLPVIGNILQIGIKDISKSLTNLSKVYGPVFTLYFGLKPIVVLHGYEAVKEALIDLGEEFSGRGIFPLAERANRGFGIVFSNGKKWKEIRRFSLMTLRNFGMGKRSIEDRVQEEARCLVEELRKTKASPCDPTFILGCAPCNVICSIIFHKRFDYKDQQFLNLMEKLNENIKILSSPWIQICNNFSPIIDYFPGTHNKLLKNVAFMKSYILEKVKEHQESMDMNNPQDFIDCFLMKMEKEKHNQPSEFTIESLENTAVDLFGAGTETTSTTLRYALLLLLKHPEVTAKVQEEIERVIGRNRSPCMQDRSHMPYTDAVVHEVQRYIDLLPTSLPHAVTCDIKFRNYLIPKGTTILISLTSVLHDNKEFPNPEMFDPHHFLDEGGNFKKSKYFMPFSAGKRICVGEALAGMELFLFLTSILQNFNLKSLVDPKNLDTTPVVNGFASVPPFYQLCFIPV
Sequence of Stromelysin-1 (P08254 whole entry, the tested form may be a part): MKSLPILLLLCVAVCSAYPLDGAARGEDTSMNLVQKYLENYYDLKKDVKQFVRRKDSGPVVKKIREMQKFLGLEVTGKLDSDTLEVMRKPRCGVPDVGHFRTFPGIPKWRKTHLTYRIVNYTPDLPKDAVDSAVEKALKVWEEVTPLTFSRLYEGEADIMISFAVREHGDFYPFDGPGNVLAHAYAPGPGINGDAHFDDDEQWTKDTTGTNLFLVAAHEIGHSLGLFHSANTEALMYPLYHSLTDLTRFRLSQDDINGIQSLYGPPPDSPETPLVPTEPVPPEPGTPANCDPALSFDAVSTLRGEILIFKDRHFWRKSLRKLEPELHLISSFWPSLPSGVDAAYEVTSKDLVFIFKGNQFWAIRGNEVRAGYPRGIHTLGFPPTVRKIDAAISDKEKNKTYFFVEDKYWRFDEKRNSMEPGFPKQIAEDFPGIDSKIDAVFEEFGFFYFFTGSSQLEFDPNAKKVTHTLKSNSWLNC

COc1cc(CNC(=O)c2cc(-c3nnn(C[C@H]4CC[C@H](CO)CC4)n3)cc(C)n2)ccc1F
inhibition at 8 min, 3 µM (CYP2C9): 39%
Ki (Collagenase 3): 1.2 nM

COc1cc(CNC(=O)c2cc(-c3nnn(C[C@@H]4CO[C@@H](CO)CO4)n3)nc(C)n2)ccc1F
microsomal CLint [1]: < 8 µL/min/mg
bioavailability [2]: 113%
Ki (Collagenase 3): 4.2 nM
clearance [3]: 9.8 mL/min/kg
Ki (Stromelysin-1): > 10 µM

COc1cc(CNC(=O)c2cc(-c3nnn(C[C@H]4CO[C@H](C(=O)O)CO4)n3)nc(C)n2)ccc1F
Drug metabolism [4]: metabolite_detected
Drug metabolism (Cynomolgus monkey): metabolite_detected
Drug metabolism (Hepatocyte): metabolite_detected
Drug metabolism (Rattus norvegicus): metabolite_detected
Ki (Collagenase 3): 0.2 nM
Drug metabolism [5]: metabolite_detected

COc1cccc(CNC(=O)c2cc(-c3nnn(C[C@H]4CC[C@H](C#N)CC4)n3)cc(C)n2)c1
Ki (Collagenase 3): 2.7 nM
Ki (Stromelysin-1): 7.21 µM

Cc1cc(-c2nnn(C[C@H]3CC[C@H](CO)CC3)n2)cc(C(=O)NCc2ccc(F)c(C)c2)n1
inhibition at 8 min, 3 µM (CYP2C9): 96%
Ki (Collagenase 3): 3.8 nM

Cc1cc(-c2nnn(C[C@H]3CC[C@H](CO)CC3)n2)cc(C(=O)NCc2ccc(F)c(C(F)(F)F)c2)n1
inhibition at 8 min, 3 µM (CYP2C9): 90%
Ki (Collagenase 3): 6.3 nM

COc1cccc(CNC(=O)c2cc(-c3nnn(C[C@H]4CC[C@H](C(=O)O)CC4)n3)cc(C)n2)c1
Ki (Stromelysin-1): > 10 µM

COc1cccc(CNC(=O)c2cc(-c3nnn(CC4CCN(S(C)(=O)=O)CC4)n3)cc(C)n2)c1
Ki (Collagenase 3): 5.8 nM
Ki (Stromelysin-1): > 10 µM

COc1cccc(CNC(=O)c2cc(-c3nnn(C[C@H]4CC[C@H](C(N)=O)CC4)n3)cc(C)n2)c1
Ki (Collagenase 3): 21.2 nM

Cn1c(=O)n(Cc2ccc(C(=O)O)cc2)c(=O)c2cc(C#CCc3ccccc3)ccc21
IC50 [6]: 18 µM

COc1cccc(CNC(=O)c2cc(-c3nnn(C[C@H]4CC[C@H](O)CC4)n3)cc(C)n2)c1
Ki (Collagenase 3): 4.5 nM
Ki (Stromelysin-1): > 10 µM

Cc1cccc(CNC(=O)c2cc(-c3nnn(C[C@H]4CC[C@H](CO)CC4)n3)cc(C)n2)c1
inhibition at 8 min, 3 µM (CYP2C9): 93%
Ki (Collagenase 3): 47.2 nM

COc1cccc(CNC(=O)c2cc(-c3nnn(CC4CCCCO4)n3)cc(C)n2)c1 (single isomer, unassigned; (-))
logD (physchem): 3.22
microsomal CLint [1]: 53.1 µL/min/mg
Ki (Collagenase 3): 7.7 nM
microsomal CLint [7]: 192 µL/min/mg
clearance [3]: 54.5 mL/min/kg

Cc1cc(-c2nnn(C[C@H]3CC[C@H](CO)CC3)n2)cc(C(=O)NCc2ccccc2)n1
inhibition at 8 min, 3 µM (CYP2C9): 78%
Ki (Collagenase 3): 119 nM

Cc1cc(-c2nnn(C[C@H]3CC[C@H](CO)CC3)n2)cc(C(=O)NCc2ccc(F)cc2)n1
inhibition at 8 min, 3 µM (CYP2C9): 56%
Ki (Collagenase 3): 32.9 nM

COc1cccc(CNC(=O)c2cc(-c3nnn(CC4CCN(C(C)=O)CC4)n3)cc(C)n2)c1
Ki (Collagenase 3): 16.6 nM
Ki (Stromelysin-1): > 10 µM

COc1ccc(CNC(=O)c2cc3c(=O)n(Cc4ccc(C(=O)O)cc4)cnc3cn2)cc1
IC50 [6]: 59 µM

Cc1cc(-c2nnn(C[C@H]3CC[C@H](CO)CC3)n2)cc(C(=O)NCc2ccc(F)c(F)c2)n1
inhibition at 8 min, 3 µM (CYP2C9): 83%
Ki (Collagenase 3): 29.3 nM

COc1cccc(CNC(=O)c2cc(-c3nnn(C[C@H]4CC[C@H](NS(C)(=O)=O)CC4)n3)cc(C)n2)c1
microsomal CLint [1]: < 8 µL/min/mg
Ki (Collagenase 3): 0.25 nM
Ki (Stromelysin-1): > 10 µM
clearance [8]: 42.6 mL/min/kg
